Laboratory results published in US4705777A, “Cationic oligopeptides having microbicidal activity” (priority 1985, dated 1987).

Experiments:
S. albus = assay: Antibacterial action, % killing (Table II), S. albus; assay type: cell-based, Staphylococcus albus; conditions: 50 μg/ml peptide, 10^7 bacterial cells/ml, 20 min, 37°
Protocol: (§1) To test antibacterial action of the polypeptides, the following protocol was employed. Various species at 10^7 bacterial cells/ml are incubated for 20 min at 37° with 50 μg/ml of the candidate peptide. Colony counts (viable organisms) are made at the outset of the incubation--beforeaddition of the candidate peptide--and after 20 min of incubation with the candidate peptide.

S. aureus 502A = assay: Antibacterial action, % killing (Table II), S. aureus 502A; assay type: cell-based, Staphylococcus aureus; conditions: 50 μg/ml peptide, 10^7 bacterial cells/ml, 20 min, 37°
Protocol: as §1

L. monocytogenes = assay: Antibacterial action, % killing (Table II), L. monocytogenes; assay type: cell-based, Listeria monocytogenes; conditions: 50 μg/ml peptide, 10^7 bacterial cells/ml, 20 min, 37°
Protocol: as §1

E. coli = assay: Antibacterial action, % killing (Table II), E. coli; assay type: cell-based, Escherichia coli; conditions: 50 μg/ml peptide, 10^7 bacterial cells/ml, 20 min, 37°
Protocol: as §1

Ps. aeruginosa = assay: Antibacterial action, % killing (Table II), Ps. aeruginosa; assay type: cell-based, Pseudomonas aeruginosa; conditions: 50 μg/ml peptide, 10^7 bacterial cells/ml, 20 min, 37°
Protocol: as §1

S. marscescens = assay: Antibacterial action, % killing (Table II), S. marscescens; assay type: cell-based, Serratia marscescens; conditions: 50 μg/ml peptide, 10^7 bacterial cells/ml, 20 min, 37°
Protocol: as §1

[1] = test system: Staphylococcus aureus 566; assay: Antibacterial activity of rabbit granulocyte peptides (Table III), S. aureus 566; assay type: cell-based; conditions: 50 μg/ml, 20 min, 37° C., 10 mM sodium phosphate buffer pH 7.4
Protocol: (§2) The procedure parallels that reported in Lehrer et al., Infection and Immunity (1983) 42:10-14. […] The subculture was grown at 37° C. for 4 h with shaking to provide mid-logarithmic phase organisms that were washed twice with buffer by centrifugation (2000×g, 10 min), and then quantitated spectrophotometrically at 620 nm, with reference to previously established CFU/Optical Density relationships. Bacteria were suspended and experiments were performed in 10 mM sodium phosphate buffer, pH 7.4. In some experiments, buffers were supplemented with 0.14 M NaCl ("high" ionic strength). […] In some experiments, 10 mM phosphate buffer with a pH of 5.8 and conductivity of 1.36 mMHO was used. Peptide "stock solutions" were prepared at 500 μg/ml (microbiuret assay) in 0.01% acetic acid, and stored at -20° C. Typically, incubation mixtures contained 1×10^5 bacterial CFU and 5 μg of peptide in 100 μl of buffer. After incubation for 20 min at 37° C., 900 μl of the same buffer was added, and two additional serial tenfold dilutions were made with that buffer. Duplicate 100 μl aliquots from the three serial dilutions were spread over appropriate nutrient agar plates and incubated for 24-72 h to insure full colony development. Killing of microorganisms was expressed as the logarithm10 No /N, where No represented the initial colony count and N represented the colony count after incubation with peptide. There was no significant alteration in colony count when any of the test organisms were exposed to peptide-free buffer for 20 min.

[2] = test system: Staphylococcus aureus 502A; assay: Antibacterial activity of rabbit granulocyte peptides (Table III), S. aureus 502A; assay type: cell-based; conditions: 50 μg/ml, 20 min, 37° C., 10 mM sodium phosphate buffer pH 7.4
Protocol: as §2

[3] = test system: Staphylococcus aureus J.F.; assay: Antibacterial activity of rabbit granulocyte peptides (Table III), S. aureus J.F.; assay type: cell-based; conditions: 50 μg/ml, 20 min, 37° C., 10 mM sodium phosphate buffer pH 7.4
Protocol: as §2

[4] = test system: Staphylococcus epidermidis UCLA-622; assay: Antibacterial activity of rabbit granulocyte peptides (Table III), S. epidermidis; assay type: cell-based; conditions: 50 μg/ml, 20 min, 37° C., 10 mM sodium phosphate buffer pH 7.4
Protocol: as §2

[5] = test system: Streptococcus pneumoniae Type III; assay: Antibacterial activity of rabbit granulocyte peptides (Table III), S. pneumoniae; assay type: cell-based; conditions: 50 μg/ml, 20 min, 37° C., 10 mM sodium phosphate buffer pH 7.4
Protocol: as §2

[6] = test system: Streptococcus agalactiae Type-I-A; assay: Antibacterial activity of rabbit granulocyte peptides (Table III), S. agalactiae Type-I-A; assay type: cell-based; conditions: 50 μg/ml, 20 min; for Bactericidal activity log10 No /N, Streptococcus agalactiae Type 1A, pH 5.8: 10 mM phosphate buffer pH 5.8; for Bactericidal activity log10 No /N, Streptococcus agalactiae Type-I-A: 37° C., 10 mM sodium phosphate buffer pH 7.4; for Bactericidal activity log10 No /N, Streptococcus agalactiae Type 1A, "High" ionic strength: buffer pH 7.4 supplemented with 0.14 M NaCl
Protocol: as §2

[7] = test system: Streptococcus agalactiae Type IIIU; assay: Antibacterial activity of rabbit granulocyte peptides (Table III), S. agalactiae Type IIIU; assay type: cell-based; conditions: 50 μg/ml, 20 min, 37° C., 10 mM sodium phosphate buffer pH 7.4
Protocol: as §2

[8] = test system: Listeria monocytogenes 450; assay: Antibacterial activity of rabbit granulocyte peptides (Table III), L. monocytogenes; assay type: cell-based; conditions: 50 μg/ml, 20 min; for Bactericidal activity log10 No /N, Listeria monocytogenes 450, pH 5.8: 10 mM phosphate buffer pH 5.8; for Bactericidal activity log10 No /N, Listeria monocytogenes 450: 37° C., 10 mM sodium phosphate buffer pH 7.4; for Bactericidal activity log10 No /N, Listeria monocytogenes 450, "High" ionic strength: buffer pH 7.4 supplemented with 0.14 M NaCl
Protocol: as §2

[9] = test system: Pseudomonas aeruginosa PAO 579; assay: Antibacterial activity of rabbit granulocyte peptides (Table III), P. aeruginosa; assay type: cell-based; conditions: 50 μg/ml, 20 min; for Bactericidal activity log10 No /N, Pseudomonas aeruginosa PAO 579, pH 5.8: 10 mM phosphate buffer pH 5.8; for Bactericidal activity log10 No /N, Pseudomonas aeruginosa PAO 579: 37° C., 10 mM sodium phosphate buffer pH 7.4; for Bactericidal activity log10 No /N, Pseudomonas aeruginosa PAO 579, "High" ionic strength: buffer pH 7.4 supplemented with 0.14 M NaCl
Protocol: as §2

[10] = test system: Escherichia coli ATCC 29648; assay: Antibacterial activity of rabbit granulocyte peptides (Table III), E. coli; assay type: cell-based; conditions: 50 μg/ml, 20 min, 37° C., 10 mM sodium phosphate buffer pH 7.4
Protocol: as §2

[11] = test system: Klebsiella pneumoniae ATCC 13883; assay: Antibacterial activity of rabbit granulocyte peptides (Table III), K. pneumoniae; assay type: cell-based; conditions: 50 μg/ml, 20 min; for Bactericidal activity log10 No /N, Klebsiella pneumoniae ATCC 13883, pH 5.8: 10 mM phosphate buffer pH 5.8; for Bactericidal activity log10 No /N, Klebsiella pneumoniae ATCC 13883: 37° C., 10 mM sodium phosphate buffer pH 7.4; for Bactericidal activity log10 No /N, Klebsiella pneumoniae ATCC 13883, "High" ionic strength: buffer pH 7.4 supplemented with 0.14 M NaCl
Protocol: as §2

Serratia marcescens = assay: Antibacterial activity of rabbit granulocyte peptides (Table III), S. marcescens; assay type: cell-based; conditions: 50 μg/ml, 20 min, 37° C., 10 mM sodium phosphate buffer pH 7.4
Protocol: as §2

[12] = test system: Hemophilus influenzae Type 3A; assay: Antibacterial activity of rabbit granulocyte peptides (Table III), H. influenzae; assay type: cell-based; conditions: 50 μg/ml, 20 min, 37° C., 10 mM sodium phosphate buffer pH 7.4
Protocol: as §2

[13] = test system: Bordetella bronchiseptica UCLA-342; assay: Antibacterial activity of rabbit granulocyte peptides (Table III), B. bronchiseptica; assay type: cell-based; conditions: 50 μg/ml, 20 min, 37° C., 10 mM sodium phosphate buffer pH 7.4
Protocol: as §2

H. influenzae = assay: Antibacterial action, % killing (Table II), H. influenzae; assay type: cell-based, Haemophilus influenzae; conditions: 50 μg/ml peptide, 10^7 bacterial cells/ml, 20 min, 37°
Protocol: as §1

K. pneumoniae = assay: Antibacterial action, % killing (Table II), K. pneumoniae; assay type: cell-based, Klebsiella pneumoniae; conditions: 50 μg/ml peptide, 10^7 bacterial cells/ml, 20 min, 37°
Protocol: as §1

Substance | % Killing, S. albus (S. albus) | % Killing, S. aureus 502A (S. aureus 502A) | % Killing, L. monocytogenes (L. monocytogenes) | % Killing, E. coli (E. coli) | % Killing, Ps. aeruginosa (Ps. aeruginosa) | Bactericidal activity log10 No /N, Staphylococcus aureus 566 [1] [log10] | Bactericidal activity log10 No /N, Staphylococcus aureus 502A [2] [log10] | Bactericidal activity log10 No /N, Staphylococcus aureus J.F. [3] [log10] | Bactericidal activity log10 No /N, Staphylococcus epidermidis UCLA-622 [4] [log10] | Bactericidal activity log10 No /N, Streptococcus pneumoniae Type III [5] [log10] | Bactericidal activity log10 No /N, Streptococcus agalactiae Type 1A, pH 5.8 [6] [log10] | Bactericidal activity log10 No /N, Streptococcus agalactiae Type-I-A [6] [log10] | Bactericidal activity log10 No /N, Streptococcus agalactiae Type 1A, "High" ionic strength [6] [log10] | Bactericidal activity log10 No /N, Streptococcus agalactiae Type IIIU [7] [log10] | Bactericidal activity log10 No /N, Listeria monocytogenes 450, pH 5.8 [8] [log10] | Bactericidal activity log10 No /N, Listeria monocytogenes 450 [8] [log10] | Bactericidal activity log10 No /N, Listeria monocytogenes 450, "High" ionic strength [8] [log10] | Bactericidal activity log10 No /N, Pseudomonas aeruginosa PAO 579, pH 5.8 [9] [log10] | Bactericidal activity log10 No /N, Pseudomonas aeruginosa PAO 579 [9] [log10] | Bactericidal activity log10 No /N, Pseudomonas aeruginosa PAO 579, "High" ionic strength [9] [log10] | other results
gly arg cys val cys arg lys gln 21eu cys ser tyr arg glu arg arg ile gly asp cys lys ile arg gly val arg phe pro phe cys cys pro arg [NP-3b] | D (<50% killing) | D (<50% killing) | B (90-99% killing) | C (50-90% killing) | A (>99% killing) | 1.7 | 0.3 | 0.8 | 1.7 | > 3.5 | 0.2 | 0.9 | 0.0 | 1.2 | 0.0 | 4.3 | 0.0 | 0.0 | 4.2 | 0.0 | % Killing, S. marscescens (S. marscescens): B (90-99% killing); Bactericidal activity log10 No /N, Escherichia coli ATCC 29648 [10]: 1.4 log10; Bactericidal activity log10 No /N, Klebsiella pneumoniae ATCC 13883, pH 5.8 [11]: 0.2 log10; Bactericidal activity log10 No /N, Klebsiella pneumoniae ATCC 13883 [11]: 3.4 log10; Bactericidal activity log10 No /N, Klebsiella pneumoniae ATCC 13883, "High" ionic strength [11]: 0.0 log10; Bactericidal activity log10 No /N, Serratia marcescens (Serratia marcescens): 0.7 log10; Bactericidal activity log10 No /N, Hemophilus influenzae Type 3A [12]: 0.7 log10; Bactericidal activity log10 No /N, Bordetella bronchiseptica UCLA-342 [13]: 0.1 log10
gly ile cys ala cys arg arg arg phe cys pro asn ser glu arg phe ser gly tyr cys arg val asn gly ala arg tyr val arg cys cys ser arg arg [NP-3a] | D (<50% killing) | D (<50% killing) | D (<50% killing) | D (<50% killing) | A (>99% killing) | 1.3 | 0.0 | 0.4 | 1.3 | > 3.5 | 0.0 | 0.6 | 0.0 | 0.3 | 0.0 | 0.2 | 0.1 | 0.1 | 3.2 | 0.1 | % Killing, H. influenzae (H. influenzae): B (90-99% killing); % Killing, K. pneumoniae (K. pneumoniae): A (>99% killing); % Killing, S. marscescens (S. marscescens): C (50-90% killing); Bactericidal activity log10 No /N, Escherichia coli ATCC 29648 [10]: 0.6 log10; Bactericidal activity log10 No /N, Klebsiella pneumoniae ATCC 13883, pH 5.8 [11]: 0.4 log10; Bactericidal activity log10 No /N, Klebsiella pneumoniae ATCC 13883 [11]: 2.4 log10; Bactericidal activity log10 No /N, Klebsiella pneumoniae ATCC 13883, "High" ionic strength [11]: 0.0 log10; Bactericidal activity log10 No /N, Serratia marcescens (Serratia marcescens): 0.5 log10; Bactericidal activity log10 No /N, Hemophilus influenzae Type 3A [12]: > 1.1 log10; Bactericidal activity log10 No /N, Bordetella bronchiseptica UCLA-342 [13]: 0.1 log10
val val cys ala cys arg arg ala leu cys leu pro arg glu arg arg ala gly phe cys arg ile arg gly arg ile his pro leu cys cys arg arg [NP-1] | B (90-99% killing) | D (<50% killing) | A (>99% killing) | B (90-99% killing) | A (>99% killing) | > 4.1 | 2.3 | 2.7 | > 4.1 | 3.8 | 0.1 | 2.3 | 0.0 | 3.9 | 0.2 | 2.1 | 0.1 | 0.3 | > 4.2 | 0.1 | % Killing, H. influenzae (H. influenzae): A (>99% killing); Bactericidal activity log10 No /N, Escherichia coli ATCC 29648 [10]: 1.9 log10; Bactericidal activity log10 No /N, Klebsiella pneumoniae ATCC 13883, pH 5.8 [11]: 0.6 log10; Bactericidal activity log10 No /N, Klebsiella pneumoniae ATCC 13883 [11]: 3.0 log10; Bactericidal activity log10 No /N, Klebsiella pneumoniae ATCC 13883, "High" ionic strength [11]: 0.1 log10; Bactericidal activity log10 No /N, Serratia marcescens (Serratia marcescens): 1.0 log10; Bactericidal activity log10 No /N, Hemophilus influenzae Type 3A [12]: > 1.1 log10; Bactericidal activity log10 No /N, Bordetella bronchiseptica UCLA-342 [13]: 0.1 log10
